We go through eleven compounds from BindingDB's records for doi:10.1016/0024-3205(84)90540-x (Schering-Plough, 1984).

Each structure is given as a SMILES string. Counter-ions that a name gives are not always drawn. Bounds are passed on as bounds.

One assay concerns the target D(2) dopamine receptor (Rattus norvegicus, UniProt P61169).
The next assay has as its target D(1A) dopamine receptor (Rattus norvegicus, UniProt P18901).

Chain of D(1A) dopamine receptor (P18901 whole entry): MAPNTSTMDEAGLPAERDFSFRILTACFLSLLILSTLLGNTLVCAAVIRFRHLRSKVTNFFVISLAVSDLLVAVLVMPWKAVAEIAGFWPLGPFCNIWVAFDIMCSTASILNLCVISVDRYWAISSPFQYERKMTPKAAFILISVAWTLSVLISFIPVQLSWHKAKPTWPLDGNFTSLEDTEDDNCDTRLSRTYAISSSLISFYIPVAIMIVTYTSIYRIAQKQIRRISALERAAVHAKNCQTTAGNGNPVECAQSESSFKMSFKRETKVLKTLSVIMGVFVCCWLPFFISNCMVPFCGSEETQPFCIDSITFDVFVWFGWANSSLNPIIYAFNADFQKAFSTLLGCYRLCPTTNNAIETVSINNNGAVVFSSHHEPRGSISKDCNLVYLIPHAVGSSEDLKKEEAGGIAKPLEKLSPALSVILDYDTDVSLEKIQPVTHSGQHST
Chain of D(2) dopamine receptor (P61169 whole entry): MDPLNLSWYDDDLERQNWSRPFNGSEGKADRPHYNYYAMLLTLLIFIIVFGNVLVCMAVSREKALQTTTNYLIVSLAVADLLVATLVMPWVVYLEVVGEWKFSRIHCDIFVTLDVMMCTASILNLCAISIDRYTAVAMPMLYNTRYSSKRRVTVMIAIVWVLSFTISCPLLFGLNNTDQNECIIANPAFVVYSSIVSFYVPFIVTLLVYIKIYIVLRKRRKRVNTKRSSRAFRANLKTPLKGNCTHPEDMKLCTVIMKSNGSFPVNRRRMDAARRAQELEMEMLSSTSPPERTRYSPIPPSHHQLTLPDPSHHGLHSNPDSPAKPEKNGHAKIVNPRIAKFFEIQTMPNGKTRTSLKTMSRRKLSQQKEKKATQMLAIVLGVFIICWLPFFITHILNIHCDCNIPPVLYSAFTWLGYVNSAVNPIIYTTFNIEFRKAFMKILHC

Consider `CC[C@@H](CO)NC(=O)[C@@H]1C=C2c3cccc4c3c(cn4C)C[C@H]2N(C)C1`, for which the inhibition constant Ki came to 116 nM on D(2) dopamine receptor and 217 nM on D(1A) dopamine receptor.
In turn, `OCCN1CCN(CCCN2c3ccccc3Sc3ccc(C(F)(F)F)cc32)CC1` [2-[4-[3-[2-(trifluoromethyl)phenothiazin-10-yl]propyl]piperazin-1-yl]ethanol;hydrochloride] came in with a Ki at D(1A) dopamine receptor of 11.2 nM.
`O=C(c1ccc(F)cc1)C1CCN(CCn2c(=O)[nH]c3ccccc3c2=O)CC1` [3-(2-{4-[(4-fluorophenyl)carbonyl]piperidin-1-yl}ethyl)-1,2,3,4-tetrahydroquinazoline-2,4-dione]: the inhibition constant (Ki) is 397 nM on D(2) dopamine receptor and 1010 nM at D(1A) dopamine receptor.
For `CN1C2CC(OC(=O)C(CO)c3ccccc3)CC1C1OC12` (stereo unspecified) [3-hydroxy-2-phenyl-propionic acid 9-methyl-3-oxa-9-aza-tricyclo[3.3.1.0*2,4*]non-7-yl ester], the Ki at D(2) dopamine receptor and on D(1A) dopamine receptor was over 10000 nM in each case.
As for `OCCN1CCN(CCCN2c3ccccc3Sc3ccc(Cl)cc32)CC1` [4-[3-(2-chlorophenothiazin-10-yl)propyl]-1-piperazineethanol], the figures for the Ki on D(2) dopamine receptor and on D(1A) dopamine receptor were 1.3 nM and 29.9 nM, respectively.
As for `NCCCC(=O)O` [4-amino-n-[2,3-3H]butyric acid], the Ki on D(2) dopamine receptor and on D(1A) dopamine receptor was over 10000 nM each time.
Turning to `OCCC1CCN(CCC=C2c3ccc(F)cc3Sc3ccc(C(F)(F)F)cc32)CC1` [CAS_60197-32-2], the Ki on D(2) dopamine receptor turned out to be 1 nM; at D(1A) dopamine receptor it was 2.9 nM.
As for `N[C@@H](CCC(=O)O)C(=O)O` [L-Glutamic acid], the Ki at D(2) dopamine receptor and at D(1A) dopamine receptor was over 10000 nM in each case.
`NCC(O)c1ccc(O)c(O)c1` (stereo not drawn) [Noradrenaline,(+)]: the Ki on D(2) dopamine receptor and at D(1A) dopamine receptor was over 10000 nM throughout.
As for `NCCc1c[nH]cn1` [[3H]histamine], the Ki on D(2) dopamine receptor and on D(1A) dopamine receptor was over 10000 nM in each case.
As to `OCCC1CCN(CC/C=C2\c3ccc(F)cc3Sc3ccc(C(F)(F)F)cc32)CC1` [trans piflutixol-(E)], the Ki on D(2) dopamine receptor was found to be 73 nM; at D(1A) dopamine receptor it was 95 nM.
